Experiment: Sensory evaluation of Vermont drink containing the agent
Details: ten panels
Experimental: Water was added to a mixture of 10 g of apple-cider vinegar (acetic acid: 4.8%), 3 g of honey, 7 g of fructose-glucose liquid sugar mixed with sugar, 0.02 g of citric acid, 0.002 g of trisodium citrate, and 0.1 g of a Vermont flavor (manufactured by T. Hasegawa Co., Ltd.) to give a total amount of 100 mL. To the resulting mixture was added (Z,Z)-4,7-tridecadienal as the acid taste and/or acid smell-reducing agent of the present invention in concentrations shown in the following Table 1 to give Vermont drinks containing the agent.
Sensory evaluation of each drink was carried out by ten panels. […] The piercing aroma characteristic to aldehydes is a characteristic aroma common to every aldehyde and refers to an irritant off-smell giving an image of deteriorated oils and fats, soap, metals, Houttuynia cordata, etc. The judgment of smell was performed by comparing the effects at different concentrations of the acid taste and/or acid smell-reducing agent, and a concentration giving the highest acid taste/acid smell quality was selected. […]

CCCCC/C=C\C/C=C/C=C/C=O [(E,E,Z)-2,4,7-tridecatrienal]
A: number of panels, acid taste/acid smell extreme and cause irritation (0.005 ppt): 10 | B: number of panels, acid taste/acid smell slightly strong and slightly cause irritation (0.005 ppt): 0 | C: number of panels, acid taste/acid smell slightly unpleasant (0.005 ppt): 0 | Flavor judgment: number of panels who judged acid taste/acid smell quality the highest (0.005 ppt): 0 | N: number of panels, irritation of acid reduced to give a mild acid taste (0.005 ppt): 0 | X: number of panels, acid taste reduced but piercing odor characteristic to aldehydes unpleasant (0.005 ppt): 0 | A: number of panels, acid taste/acid smell extreme and cause irritation (0.02 ppt): 10 | B: number of panels, acid taste/acid smell slightly strong and slightly cause irritation (0.02 ppt): 0 | C: number of panels, acid taste/acid smell slightly unpleasant (0.02 ppt): 0 | Flavor judgment: number of panels who judged acid taste/acid smell quality the highest (0.02 ppt): 0 | N: number of panels, irritation of acid reduced to give a mild acid taste (0.02 ppt): 0 | X: number of panels, acid taste reduced but piercing odor characteristic to aldehydes unpleasant (0.02 ppt): 0 | A: number of panels, acid taste/acid smell extreme and cause irritation (0.1 ppt): 10 | B: number of panels, acid taste/acid smell slightly strong and slightly cause irritation (0.1 ppt): 0 | C: number of panels, acid taste/acid smell slightly unpleasant (0.1 ppt): 0 | Flavor judgment: number of panels who judged acid taste/acid smell quality the highest (0.1 ppt): 0 | N: number of panels, irritation of acid reduced to give a mild acid taste (0.1 ppt): 0 | X: number of panels, acid taste reduced but piercing odor characteristic to aldehydes unpleasant (0.1 ppt): 0 | A: number of panels, acid taste/acid smell extreme and cause irritation (0.2 ppt): 8 | B: number of panels, acid taste/acid smell slightly strong and slightly cause irritation (0.2 ppt): 2 | C: number of panels, acid taste/acid smell slightly unpleasant (0.2 ppt): 0 | Flavor judgment: number of panels who judged acid taste/acid smell quality the highest (0.2 ppt): 0 | N: number of panels, irritation of acid reduced to give a mild acid taste (0.2 ppt): 0 | X: number of panels, acid taste reduced but piercing odor characteristic to aldehydes unpleasant (0.2 ppt): 0 | A: number of panels, acid taste/acid smell extreme and cause irritation (0.5 ppt): 7 | B: number of panels, acid taste/acid smell slightly strong and slightly cause irritation (0.5 ppt): 2 | C: number of panels, acid taste/acid smell slightly unpleasant (0.5 ppt): 1 | Flavor judgment: number of panels who judged acid taste/acid smell quality the highest (0.5 ppt): 0 | N: number of panels, irritation of acid reduced to give a mild acid taste (0.5 ppt): 0 | X: number of panels, acid taste reduced but piercing odor characteristic to aldehydes unpleasant (0.5 ppt): 0 | A: number of panels, acid taste/acid smell extreme and cause irritation (1 ppb): 0 | B: number of panels, acid taste/acid smell slightly strong and slightly cause irritation (1 ppb): 0 | C: number of panels, acid taste/acid smell slightly unpleasant (1 ppb): 3 | Flavor judgment: number of panels who judged acid taste/acid smell quality the highest (1 ppb): 0 | N: number of panels, irritation of acid reduced to give a mild acid taste (1 ppb): 4 | X: number of panels, acid taste reduced but piercing odor characteristic to aldehydes unpleasant (1 ppb): 3 | A: number of panels, acid taste/acid smell extreme and cause irritation (1 ppt): 0 | B: number of panels, acid taste/acid smell slightly strong and slightly cause irritation (1 ppt): 5 | C: number of panels, acid taste/acid smell slightly unpleasant (1 ppt): 4 | Flavor judgment: number of panels who judged acid taste/acid smell quality the highest (1 ppt): 0 | N: number of panels, irritation of acid reduced to give a mild acid taste (1 ppt): 1 | X: number of panels, acid taste reduced but piercing odor characteristic to aldehydes unpleasant (1 ppt): 0 | A: number of panels, acid taste/acid smell extreme and cause irritation (5 ppt): 0 | B: number of panels, acid taste/acid smell slightly strong and slightly cause irritation (5 ppt): 2 | C: number of panels, acid taste/acid smell slightly unpleasant (5 ppt): 3 | Flavor judgment: number of panels who judged acid taste/acid smell quality the highest (5 ppt): 3 | N: number of panels, irritation of acid reduced to give a mild acid taste (5 ppt): 5 | X: number of panels, acid taste reduced but piercing odor characteristic to aldehydes unpleasant (5 ppt): 0 | A: number of panels, acid taste/acid smell extreme and cause irritation (10 ppb): 0 | B: number of panels, acid taste/acid smell slightly strong and slightly cause irritation (10 ppb): 0 | C: number of panels, acid taste/acid smell slightly unpleasant (10 ppb): 2 | Flavor judgment: number of panels who judged acid taste/acid smell quality the highest (10 ppb): 0 | N: number of panels, irritation of acid reduced to give a mild acid taste (10 ppb): 2 | X: number of panels, acid taste reduced but piercing odor characteristic to aldehydes unpleasant (10 ppb): 6 | A: number of panels, acid taste/acid smell extreme and cause irritation (20 ppt): 0 | B: number of panels, acid taste/acid smell slightly strong and slightly cause irritation (20 ppt): 0 | C: number of panels, acid taste/acid smell slightly unpleasant (20 ppt): 4 | Flavor judgment: number of panels who judged acid taste/acid smell quality the highest (20 ppt): 4 | N: number of panels, irritation of acid reduced to give a mild acid taste (20 ppt): 6 | X: number of panels, acid taste reduced but piercing odor characteristic to aldehydes unpleasant (20 ppt): 0 | A: number of panels, acid taste/acid smell extreme and cause irritation (50 ppb): 0 | B: number of panels, acid taste/acid smell slightly strong and slightly cause irritation (50 ppb): 0 | C: number of panels, acid taste/acid smell slightly unpleasant (50 ppb): 0 | Flavor judgment: number of panels who judged acid taste/acid smell quality the highest (50 ppb): 0 | N: number of panels, irritation of acid reduced to give a mild acid taste (50 ppb): 2 | X: number of panels, acid taste reduced but piercing odor characteristic to aldehydes unpleasant (50 ppb): 8 | A: number of panels, acid taste/acid smell extreme and cause irritation (100 ppt): 0 | B: number of panels, acid taste/acid smell slightly strong and slightly cause irritation (100 ppt): 0 | C: number of panels, acid taste/acid smell slightly unpleasant (100 ppt): 3 | Flavor judgment: number of panels who judged acid taste/acid smell quality the highest (100 ppt): 3 | N: number of panels, irritation of acid reduced to give a mild acid taste (100 ppt): 7 | X: number of panels, acid taste reduced but piercing odor characteristic to aldehydes unpleasant (100 ppt): 0 | A: number of panels, acid taste/acid smell extreme and cause irritation (500 ppt): 0 | B: number of panels, acid taste/acid smell slightly strong and slightly cause irritation (500 ppt): 0 | C: number of panels, acid taste/acid smell slightly unpleasant (500 ppt): 4 | Flavor judgment: number of panels who judged acid taste/acid smell quality the highest (500 ppt): 0 | N: number of panels, irritation of acid reduced to give a mild acid taste (500 ppt): 4 | X: number of panels, acid taste reduced but piercing odor characteristic to aldehydes unpleasant (500 ppt): 2

— patent US20140120232A1, “ACID TASTE/ACID SMELL-REDUCING AGENT” (T. HASEGAWA CO., LTD., priority 2011, published 2014)
